According to patent US20110098288A1, “SULFONAMIDES AS ZAP-70 INHIBITORS” (priority 2008, published 2011):
Where a name gives a salt, the structure may show the parent alone.

What was measured:
[1] = test system: Jurkat cells; test: Calcium release assay (Fluo-4 flow cytometry after anti-CD3 stimulation); type: cell-based; conditions: Homo sapiens, Jurkat cell line J77, anti-CD3 activation, read-out: IC50 (Calcium ion release in cells)
How it was run: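 Jurkat J77 cells loaded with Fluo-4/Pluronic F-127 for 30 min at 37 °C, then incubated with compound at room temperature in the dark in PBS–CaCl2 with 10% FCS. Stimulation with anti-CD3 (0.2 μg/ml final) plus GAM (0.75 μg/ml final) at 37 °C, then flow-cytometric Ca2+ fluorescence acquired for 200 s.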

[2] = molecular target: T1, ZAP-70 (Homo sapiens, UniProt P43403); test: ZAP-70 kinobeads assay; type: binding; conditions: competition with immobilized aminopyrido-pyrimidine ligand 24 in cell lysate; ZAP-70 detected by dot blot
T1 construct: endogenous in cells; host or cells: cell lysate
T1 sequence (P43403 1-619): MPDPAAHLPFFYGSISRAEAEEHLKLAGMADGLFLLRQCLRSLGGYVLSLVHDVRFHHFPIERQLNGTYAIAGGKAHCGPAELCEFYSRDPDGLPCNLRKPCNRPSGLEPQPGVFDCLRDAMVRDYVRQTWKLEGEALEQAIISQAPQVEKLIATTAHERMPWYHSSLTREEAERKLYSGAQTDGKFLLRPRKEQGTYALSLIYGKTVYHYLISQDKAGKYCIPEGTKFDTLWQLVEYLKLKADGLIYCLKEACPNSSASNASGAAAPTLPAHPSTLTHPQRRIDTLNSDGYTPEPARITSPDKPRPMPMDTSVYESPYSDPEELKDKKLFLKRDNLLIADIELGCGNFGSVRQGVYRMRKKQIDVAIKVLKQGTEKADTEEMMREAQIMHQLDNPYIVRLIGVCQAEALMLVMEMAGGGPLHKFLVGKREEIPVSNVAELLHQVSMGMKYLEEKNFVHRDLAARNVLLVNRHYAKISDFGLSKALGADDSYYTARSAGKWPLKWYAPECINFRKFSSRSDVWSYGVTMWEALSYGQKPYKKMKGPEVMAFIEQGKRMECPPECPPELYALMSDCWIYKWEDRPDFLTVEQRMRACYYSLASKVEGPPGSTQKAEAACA
How it was run: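 Competition binding format: compounds compete with a bead-immobilized aminopyrido-pyrimidine ligand for ZAP-70 in cell lysate. After bead separation and elution, bound ZAP-70 measured by antibody dot blot with infrared read-out.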

Row | SMILES | IC50 [1] [nM] | IC50 [2] [nM]
1 | COc1cc(Nc2ncc(Cl)c(Nc3ccc4c(c3NS(C)(=O)=O)OCCO4)n2)cc(OC)c1OC [Example 164, N-(6-(5-chloro-2-(3,4,5-trimethoxyphenylamino)pyrimidin-4-ylamino)-2,3-dihydrobenzo[b][1,4]dioxin-5-yl)methanesulfonamide] | < 100 | < 100
2 | Cc1cc(C)cc(Nc2ncc(F)c(Nc3ccccc3NS(C)(=O)=O)n2)c1 [Example 3, N-(2-(2-(3,5-dimethylphenylamino)-5-fluoropyrimidin-4-ylamino)phenyl)methanesulfonamide] | 100 to 1000 | 100 to 1000
3 | COc1cc(Nc2nccc(Nc3ccccc3NS(C)(=O)=O)n2)cc(OC)c1OC [Example 69, N-(2-(2-(3,4,5-trimethoxyphenylamino)pyrimidin-4-ylamino)phenyl)methanesulfonamide] | 100 to 1000 | 100 to 1000
4 | CS(=O)(=O)Nc1ccccc1Nc1nc(Nc2ccc(OCCN3CCCC3)cc2)ncc1F [Example 96, N-(2-(5-fluoro-2-(4-(2-(pyrrolidin-1-yl)ethoxy)phenylamino)pyrimidin-4-ylamino)phenyl)methanesulfonamide] | 100 to 1000 | 100 to 1000
5 | Cc1cc(C)cc(Nc2ncc(F)c(Nc3ccccc3N(C)S(C)(=O)=O)n2)c1 [Example 72, N-(2-(2-(3,5-dimethylphenylamino)-5-fluoropyrimidin-4-ylamino)phenyl)-N-methylmethanesulfonamide] | 100 to 1000 | 1000 to 10000
6 | COc1cc(Nc2ncc(F)c(Nc3ccccc3NS(=O)(=O)c3ccsc3)n2)cc(OC)c1OC [Example 49, N-(2-(5-fluoro-2-(3,4,5-trimethoxyphenylamino)pyrimidin-4-ylamino)phenyl)thiopehene-3-sulfonamide] | 100 to 1000 | 1000 to 10000
7 | CS(=O)(=O)Nc1ccccc1Nc1nc(Nc2cccc(OCCN3CCCCC3)c2)ncc1F [Example 79, N-(2-(5-fluoro-2-(3-(2-(piperidin-1-yl)ethoxy)phenylamino)pyrimidin-4-ylamino)phenyl)methanesulfonamide formate] | < 100 | < 100
8 | CC(=O)c1cccc(Nc2ncc(F)c(Nc3ccccc3NS(C)(=O)=O)n2)c1 [Example 14, N-(2-(2-(3-acetylphenylamino)-5-fluoropyrimidin-4-ylamino)phenyl)methanesulfonamide] | 100 to 1000 | 100 to 1000
9 | COc1cc(Nc2ncc(Cl)c(Nc3ccccc3NS(C)(=O)=O)n2)cc(OCC(C)C)c1OC [Example 137, N-(2-(5-chloro-2-(3-isobutoxy-4,5-dimethoxyphenylamino)pyrimidin-4-ylamino)phenyl)methanesulfonamide] | 100 to 1000 | < 100
10 | COc1cc(Nc2ncc(F)c(Nc3ccc(C)c(C)c3NS(C)(=O)=O)n2)cc(OC)c1OC [Example 165, N-(6-(5-fluoro-2-(3,4,5-trimethoxyphenylamino)pyrimidin-4-ylamino)-2,3-dimethylphenyl)methanesulfonamide] | 100 to 1000 | 100 to 1000
11 | CCN(c1ccccc1Nc1nc(Nc2ccc(OCCN3CCCCC3)cc2)ncc1F)S(C)(=O)=O [Example 158, N-ethyl-N-(2-(5-fluoro-2-(4-(2-(piperidin-1-yl)ethoxy)phenylamino)pyrimidin-4-ylamino)phenyl)methanesulfonamide] | < 100 | 100 to 1000
12 | COc1cc(Nc2ncc(F)c(Nc3cccc(C)c3NS(C)(=O)=O)n2)cc(OC)c1OCCN1CCCCC1 [Example 113, N-(2-(2-(3,5-dimethoxy-4-(2-(piperidin-1-yl)ethoxy)phenylamino)-5-fluoropyrimidin-4-ylamino)-6-methylphenyl)methanesulfonamide] | 100 to 1000 | < 100
13 | CS(=O)(=O)Nc1ccccc1Nc1nc(Nc2ccc(OCCN3CCOCC3)cc2)ncc1F [Example 86, N-(2-(5-fluoro-2-(4-(2-morholinoethoxy)phenylamino)pyrimidin-4-ylamino)phenyl)methanesulfonamide] | 100 to 1000 | 100 to 1000
14 | COc1cc(Nc2ncc(F)c(Nc3cccc(C)c3NS(C)(=O)=O)n2)cc(OCCN2CCCCC2)c1OC [Example 114, N-(2-(2-(3,4-dimethoxy-5-(2-(piperidin-1-yl)ethoxy)phenylamino)-5-fluoropyrimidin-4-ylamino)-6-methylphenyl)methanesulfonamide] | 100 to 1000 | < 100
15 | CCOc1cccc(Nc2nc(Nc3cc(OC)c(OC)c(OC)c3)ncc2F)c1NS(C)(=O)=O [Example 166, N-(2-ethoxy-6-(5-fluoro-2-(3,4,5-trimethoxyphenylamino)pyrimidin-4-ylamino)phenyl)methanesulfonamide] | 100 to 1000 | < 100
16 | CN1C(=O)COc2cc(Nc3ncc(F)c(Nc4ccccc4NS(C)(=O)=O)n3)ccc21 [Example 25, N-(2-(5-fluoro-2-(4-methyl-3-oxo-3,4-dihydro-2H-benzo[b][1,4]oxazin-7-ylamino)pyrimidin-4-ylamino)phenyl)methanesulfonamide] | 100 to 1000 | 100 to 1000
